In patent US10179914B2, “CDC25A inhibitor for the treatment of drug resistant cancer or for the prevention of tumor relapse” (INSERM (INSTITUT NATIONAL DE LA SANTÉ ET DE LA RECHERCHE …, priority 2014, dated 2019):
pIC50: −log10 of the molar value.

How the values were obtained:
CDC25A [1] = test: CDC25A protein level by western blot; type: cell-based, human; conditions: for CDC25A protein level: 2 hours
Experimental: (a) MV4-11 (left panel) and MOLM-14 (right panel) FLT3-ITD expressing cells were treated for 2 hours with FLT3 inhibitor III (100 nM), and the protein levels of CDC25A, CDC25B, CDC25C, Cyclin A, Cyclin D1 and p27Kip1 were analyzed by western blot. (b) MOLM-14 (FLT3-ITD postive), KG1 and HL-60 (FLT3 wt positive) and K562 (FLT3 negative) cell lines were treated for 2 hours with FLT3 inhibitor III and the level of CDC25A was analyzed by western blot. Actin was used as a loading control.
(a) MV4-11 (left panel) and MOLM-14 (right panel) cells were treated for 2 hours with STAT5 inhibitor (100 nM). CDC25A, Pim1, and STAT5 protein and phosphorylation levels were analyzed by western blot. (b) MV4-11 and MOLM-14 cells were transfected for 24 hours with STAT5A/B siRNA and the impact on CDC25A protein level was analyzed by western blot. […] Actin was used as a loading control in these experiments. ns: non specific.
(a) MV4-11 cells were first treated by cycloheximide (50 μg/mL) for 90 minutes in order to completely down regulate CDC25A. […] The FLT3 inhibitor was added 30 minutes before medium wash. This western blot is representative of three independent experiments. […] (b) CDC25A mRNA expression was measured by quantitative RT-PCR after FLT3 inhibition for 2 hours (100 nM). […] (c) MV4-11 cells were treated with cycloheximide (50 μg/mL) for the indicated times. FLT3 inhibitor III (100 nM) was added 30 minutes before cycloheximide treatment, and left in the medium. This western blot is representative of three independent experiments.
Cell lines and reagents. […] Concerning MOLM-14 cell line, the presence of a monoallelic 21 bp FLT3-ITD mutation and of an MLL-containing ins(11; 9)(q23;p22p23) were verified (Hematology laboratory of Toulouse University Hospital, Prof E. Delabesse and Dr I. Luquet). KG1 and HL-60 (ACC-14 and ACC-3, DSMZ) cell lines were grown in Iscove's Modified Dulbecco's Medium (IMDM, Gibco) plus 20% FBS. All cells were grown in the presence of 100 units/ml of penicillin and streptomycin (Invitrogen) at 37° C. and 5% CO2.
siRNA. The MV4-11 cell line was transfected with the Amaxa nucleofection technology (Lonza, Koeln, Germany). […] Twenty-four or forty-eight hours after transfection, cells were counted (trypan blue staining), and western blotting was performed.
Western blot. 2×10^6 cells were usually lysed in 100 μL of NuPAGE® LDS Sample Buffer (Novex, Life Technologies, Carlsbad, Calif., USA), sonicated for 15 seconds, and boiled for 3 minutes. Proteins were then resolved on NuPAGE® 4-12% Bis-Tris Gels and transferred to nitrocellulose membrane. Saturation of the membrane was done for 1 hour in Tris Buffer Saline with Tween 0.1% (TBS-T) containing 5% non-fat milk or 5% bovine serum albumin. Membranes were blotted with proper antibodies overnight at 4° C., washed thrice with TBS-T, and incubated for 30 minutes with HRP-conjugated secondary antibody (Promega, Madison, Wis., USA).

human Hep 3B tumor cells = conditions: read-out: IC50 growth of human Hep 3B tumor cells; cited from earlier work
[2] = test system: transplanted rat hepatoma cells (Fisher F344); conditions: delivered intraperitoneally; cited from earlier work
MOLM-14 and MV4-11 cells = test: Differentiation of FLT3-ITD AML cell lines (surface markers, morphology); type: cell-based, human; conditions: another CDC25 inhibitor
Experimental: (a-b) MOLM-14 and MV4-11 cells were treated for different times with IRC-083864 (100 nM and 200 nM) and the expression of the cell surface markers CD11b, CD14 and CD15 were followed by flow cytometry analysis. (c) MOLM-14 and MV4-11 cells were treated for different times with IRC-083864 (100 nM) and morphological changes were estimated by microscopy after cells were cytospun and stained at days 8 and 13. Original magnification ×100. (d) MOLM-14 cells were treated for different times with IRC-083864 (100 nM) and c-myc expression as well as C/EBPα phosphorylation on serine 21 were analyzed by western blot at day 1, and C/EBPε expression after 6 days of treatment. (e) MOLM-14 cells were transfected with CDC25A shRNA The expression of the cell surface markers CD11b, CD14 and CD15 were followed by flow cytometry analysis at day 3 and 6 (upper panel), and their morphology was analyzed by microscopy after 6 days (lower panel). Original magnification ×100. (f) MOLM-14 cells were transfected with CDC25A siRNA, and their morphology was analyzed by microscopy after 3 days (upper panel). Original magnification ×100. The efficiency of CDC25A siRNA was assessed by western blot analysis (lower panel).
Lentiviral infections. To generate lentiviral vectors expressing CDC25A protein, sequences were cloned into the pTrip-TAL-Ires-GFP lentiviral vector. We used 293-T packaging cells, co-transfected with lentiviral protein (GAG, POL, and ENV) encoding plasmids, and plasmids containing a control or CDC25A genes, separately. Supernatants containing lentivirus were collected 48 h after transfection, during 3 consecutive days. MOLM-14 cells were plated at 5×10^5 cells in 200 μl in serum-free medium and 5 μl of lentiviral supernatant was added during 3 h. Cells were then grown in 10% FBS RPMI medium.
Flow cytometry. Apoptotic cells were detected with Annexin V-FITC detection kit from BD Pharmingen (San Diego, Calif., USA) according to the manufacturer instructions. To evaluate AML cell differentiation, cells were stained for 30 min with the following anti-human monoclonal antibodies: CD11b-PE (Beckman Coulter), CD14-FITC (BD Biosciences), CD15-APC (BD Biosciences). For patient samples, additional hCD45-APC-H7 (BD Biosciences), Annexin V-Pacific Blue (BioLegend, San Diego, Calif., USA) and 7-AAD (Sigma) were used; and for bone marrow mice cells, additional CD33-FITC, CD44-PE Cy7, mCD45-PerCP Cy 5.5, CD14-Alexa 700 were used. Data were collected on a LSRII or a LSRFortessa cytometer (BD Biosciences), and analyzed with FlowJo software. A minimum of 10,000 events was collected.
Morphological examination. […] were spun at 500 rpm for 5 minutes onto glass slides and May-Grünwald-Giemsa stained at the Toulouse University Hospital hematology laboratory.

[3] = test system: FLT3-wild type primary AML samples; test: Differentiation of FLT3 wild-type primary AML samples; type: cell-based, human; conditions: same conditions
Text: Patient samples. Patient AML samples were obtained after informed consent in accordance with the Declaration of Helsinki and stored at the HIMIP collection. According to the French law, HIMIP collection has been declared to the Ministry of Higher Education and Research (DC 2008-307 collection 1) and obtained a transfer agreement (AC 2008-129) after approbation by ethical committees (Comité de Protection des Personnes Sud-Ouest et Outremer II and APHP ethical committee). Clinical and biological annotations of the samples have been declared to the CNIL (Comité National Informatique et Libertés i.e. Data processing and Liberties National Committee). Frozen cells were thawed in IMDM medium with 20% FBS and immediately processed for treatment. All patients were diagnosed at the Department of Hematology of Toulouse University Hospital.
Co-cultures. […]
Flow cytometry. Apoptotic cells were detected with Annexin V-FITC detection kit from BD Pharmingen (San Diego, Calif., USA) according to the manufacturer instructions. […] Data were collected on a LSRII or a LSRFortessa cytometer (BD Biosciences), and analyzed with FlowJo software. […]

CDC25A mRNA = CDC25A mRNA by quantitative RT-PCR; type: cell-based, human; conditions: two hours, 100 nM, MOLM-14 cells
Experimental: (a) MV4-11 cells were first treated by cycloheximide (50 μg/mL) for 90 minutes in order to completely down regulate CDC25A. Cells were then placed in normal culture conditions in the presence (lower panel) or the absence (upper panel) of FLT3 inhibitor (100 nM), and western blot analysis of CDC25A was performed at the indicated times. The FLT3 inhibitor was added 30 minutes before medium wash. This western blot is representative of three independent experiments. […] (b) CDC25A mRNA expression was measured by quantitative RT-PCR after FLT3 inhibition for 2 hours (100 nM). […] (c) MV4-11 cells were treated with cycloheximide (50 μg/mL) for the indicated times. FLT3 inhibitor III (100 nM) was added 30 minutes before cycloheximide treatment, and left in the medium. This western blot is representative of three independent experiments.
Quantitative RT-PCR. Total RNA was extracted by RNeasy Kit (Qiagen) according to the manufacturer. RNA quality and purity was assessed by using the Agilent RNA 6000 Nano kit (Agilent Technologies, Santa Clara, Calif., USA). cDNA was generated with the SuperScript III First-Strand Synthesis System for RT-PCR (Invitrogen) following the manufacturer instructions. […] Results were analyzed with the LightCycler®480 software release 1.5.0 SP4 using the conventional ΔΔCt method.

Cdc25B = target: T1, Cdc25B (Homo sapiens, UniProt P30305); conditions: cited from earlier work
T1 sequence (P30305 1-580): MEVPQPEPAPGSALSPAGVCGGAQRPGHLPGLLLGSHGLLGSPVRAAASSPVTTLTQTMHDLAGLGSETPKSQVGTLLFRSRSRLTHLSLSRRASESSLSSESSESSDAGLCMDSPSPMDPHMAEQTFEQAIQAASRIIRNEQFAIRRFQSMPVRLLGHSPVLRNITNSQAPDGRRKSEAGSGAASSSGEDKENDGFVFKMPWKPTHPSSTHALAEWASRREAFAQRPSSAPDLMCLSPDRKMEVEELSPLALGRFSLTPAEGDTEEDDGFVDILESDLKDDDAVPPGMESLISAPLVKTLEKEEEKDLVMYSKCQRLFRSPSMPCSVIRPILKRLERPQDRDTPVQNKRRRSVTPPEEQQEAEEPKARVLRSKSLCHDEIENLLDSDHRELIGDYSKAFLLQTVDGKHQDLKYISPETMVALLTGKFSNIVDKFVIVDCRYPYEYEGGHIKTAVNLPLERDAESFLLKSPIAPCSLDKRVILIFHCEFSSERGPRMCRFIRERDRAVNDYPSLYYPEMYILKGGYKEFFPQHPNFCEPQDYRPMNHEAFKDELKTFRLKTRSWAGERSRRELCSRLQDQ

Mia-Paca-2 tumors = conditions: active after oral administration; cited from earlier work
Cdc25C = Cdc25C (Homo sapiens, UniProt P30307); conditions: cited from earlier work
Cdc25A [4] = target: Cdc25A (Homo sapiens, UniProt P30304); conditions: cited from earlier work
[5] = test system: human cell lines (tumor cell proliferation); conditions: cited from earlier work

Sequence of Cdc25C (P30307 whole entry): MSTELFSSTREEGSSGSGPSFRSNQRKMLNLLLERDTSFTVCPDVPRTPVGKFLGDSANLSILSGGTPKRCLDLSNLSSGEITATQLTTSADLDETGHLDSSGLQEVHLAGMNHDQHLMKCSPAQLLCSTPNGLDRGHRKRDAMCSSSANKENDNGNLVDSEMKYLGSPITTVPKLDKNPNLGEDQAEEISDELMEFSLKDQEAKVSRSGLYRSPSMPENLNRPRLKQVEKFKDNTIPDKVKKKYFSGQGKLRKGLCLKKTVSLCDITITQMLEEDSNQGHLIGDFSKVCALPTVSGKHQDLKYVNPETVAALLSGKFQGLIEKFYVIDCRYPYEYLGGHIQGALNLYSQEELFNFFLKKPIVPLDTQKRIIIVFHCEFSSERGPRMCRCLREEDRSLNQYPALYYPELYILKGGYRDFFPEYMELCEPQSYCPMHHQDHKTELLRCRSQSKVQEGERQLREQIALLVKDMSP
Sequence of Cdc25A (P30304 whole entry): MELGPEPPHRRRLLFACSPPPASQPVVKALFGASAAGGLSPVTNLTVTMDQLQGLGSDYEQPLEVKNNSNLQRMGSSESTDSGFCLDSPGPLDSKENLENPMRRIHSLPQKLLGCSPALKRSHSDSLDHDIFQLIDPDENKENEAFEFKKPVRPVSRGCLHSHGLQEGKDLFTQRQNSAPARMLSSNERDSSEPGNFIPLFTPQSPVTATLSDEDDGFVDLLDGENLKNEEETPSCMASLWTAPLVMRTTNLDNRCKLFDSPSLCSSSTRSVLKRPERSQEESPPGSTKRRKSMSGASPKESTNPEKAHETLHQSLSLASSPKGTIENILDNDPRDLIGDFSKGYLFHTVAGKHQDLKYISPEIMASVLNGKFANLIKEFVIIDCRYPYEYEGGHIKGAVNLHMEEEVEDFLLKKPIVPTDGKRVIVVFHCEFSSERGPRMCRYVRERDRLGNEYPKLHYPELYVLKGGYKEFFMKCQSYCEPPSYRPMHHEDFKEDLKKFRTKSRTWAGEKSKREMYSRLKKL

CC(C)(C)c1cc(NC(=O)Nc2ccc(-c3cn4c(n3)sc3cc(OCCN5CCOCC5)ccc34)cc2)no1 [AC220, quizartinib]
CDC25A protein level (CDC25A [1]; MV4-11 and MOLM-14 cells): induced CDC25A down-regulation

O=C1C(SCCO)=C(SCCO)C(=O)N1c1ccc(-c2ccccc2)cc1 [PM20]
pIC50 (human Hep 3B tumor cells): 6.15
growth of transplanted rat hepatoma cells in vivo [2]: inhibits the growth

O=C1C(SCCO)=C(SCCO)C(=O)c2ccccc21 [NSC-95397, reference compound]
CD11b, CD14 and CD15 markers expression (MOLM-14 and MV4-11 cells): modifications
nuclear morphology (MOLM-14 and MV4-11 cells): nuclear morphological changes
differentiation of FLT3-wild type samples [3]: no evidence of differentiation

c1ccc(-c2cnc(Nc3ccc(OCCN4CCCC4)cc3)s2)cc1 [FLT3 inhibitor III]
CDC25A mRNA level (CDC25A mRNA): significantly reduced
CDC25A protein level (CDC25A [1]; KG1, HL-60 (FLT3-wild type) and K562 (FLT3 non-expressing) cells): did not modify
CDC25A protein level (CDC25A [1]; MV4-11 and MOLM-14 cells): induced CDC25A down-regulation
stability of CDC25A protein (half-life with cycloheximide) (CDC25A [1]; cycloheximide 50 μg/mL, inhibitor 100 nM): did not significantly modify
accumulation of CDC25A protein (rate of synthesis) (CDC25A [1]; time course, 100 nM, FIG. 3a): significantly decreased

Cc1nc2c(s1)C(=O)C=C(NCCN(C)C)C2=O [BN82685, reference compound]
pIC50 (Cdc25B): 6.60
growth of Mia-Paca-2 tumors xenografted into nude mice (Mia-Paca-2 tumors): inhibited the growth
pIC50 (Cdc25C): 6.77
pIC50 (Cdc25A [4]): 6.60
growth inhibition in presence of classical resistance mechanisms (drug efflux pumps, P-glycoprotein, multi-drug resistance proteins) [5]: unaffected
duration of proliferation inhibition after short treatment ([5]; treatment time 1 h): 96 h
